The results in this text go back to patent publication US10526327B2, “Histone demethylase inhibitors” (CELGENE QUANTICEL RESEARCH, INC., priority 2013, dated 2020).

Some results are limits rather than exact numbers.

The assay deals with T1, Jarid1A (Homo sapiens, UniProt P29375).
T1 construct: purchased BPS Bioscience 50110
T1 sequence (P29375 1-1090): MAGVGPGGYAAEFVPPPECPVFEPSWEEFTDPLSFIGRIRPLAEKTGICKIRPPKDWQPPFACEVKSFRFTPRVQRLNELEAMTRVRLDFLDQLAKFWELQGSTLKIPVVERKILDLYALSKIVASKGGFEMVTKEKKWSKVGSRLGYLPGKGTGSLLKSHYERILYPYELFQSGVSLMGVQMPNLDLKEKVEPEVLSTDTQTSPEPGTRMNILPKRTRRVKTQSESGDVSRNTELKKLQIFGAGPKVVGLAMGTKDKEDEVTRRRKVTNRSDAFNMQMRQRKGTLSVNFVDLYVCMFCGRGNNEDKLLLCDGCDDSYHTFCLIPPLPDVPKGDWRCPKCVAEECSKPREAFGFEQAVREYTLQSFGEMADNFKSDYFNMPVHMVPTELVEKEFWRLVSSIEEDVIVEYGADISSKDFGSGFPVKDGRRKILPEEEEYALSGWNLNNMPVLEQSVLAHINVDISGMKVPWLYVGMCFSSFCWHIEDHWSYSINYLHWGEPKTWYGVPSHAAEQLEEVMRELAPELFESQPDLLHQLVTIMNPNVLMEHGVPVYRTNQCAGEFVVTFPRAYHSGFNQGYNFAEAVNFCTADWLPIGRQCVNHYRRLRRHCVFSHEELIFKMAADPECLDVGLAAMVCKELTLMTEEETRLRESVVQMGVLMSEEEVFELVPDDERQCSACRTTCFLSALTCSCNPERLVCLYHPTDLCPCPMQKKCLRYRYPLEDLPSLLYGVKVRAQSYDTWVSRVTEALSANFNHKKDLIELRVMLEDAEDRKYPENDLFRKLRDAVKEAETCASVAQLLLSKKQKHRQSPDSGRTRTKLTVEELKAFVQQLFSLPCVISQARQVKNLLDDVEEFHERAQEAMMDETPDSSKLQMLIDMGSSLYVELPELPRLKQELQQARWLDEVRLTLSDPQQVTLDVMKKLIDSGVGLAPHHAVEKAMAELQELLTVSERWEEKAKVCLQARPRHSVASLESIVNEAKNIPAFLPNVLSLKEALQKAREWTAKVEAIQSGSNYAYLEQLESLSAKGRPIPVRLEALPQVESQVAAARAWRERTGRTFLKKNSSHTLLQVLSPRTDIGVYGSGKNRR
Briefly: Jarid1A in vitro enzyme inhibition assay (TR-FRET). It counts as biochemical. An excerpt:
This assay determines the ability of a test compound to inhibit Jarid1A, Jarid1B, and JMJD2C demethylase activity. Baculovirus expressed Jarid1A (GenBank Accession #NM_001042603, AA1-1090) was purchased from BPS Bioscience (Cat#50110). Baculovirus expressed Jarid1B (GenBank Accession #NM_006618, AA 2-751) was purchased from BPS Bioscience (Cat #50121) or custom made by MolecularThroughput. Baculovirus expressed JMJD2C (GenBank Accession #BC143571, AA 2-372) was purchased from BPS Bioscience (Cat#50105).
The enzymatic assay of Jarid1A activity is based upon Time Resolved-Fluorescence Resonance Energy Transfer (TR-FRET) detection. The ability of test compounds to inhibit the activity of Jarid1A was determined in 384-well plate format under the following reaction conditions: 1 nM Jarid1A, 300 nM H3K4me3-biotin labeled peptide (Anaspec cat #64357), 2 μM alpha-ketoglutaric acid in assay buffer of 50 mM HEPES, pH7.3, 0.005% Brij35, 0.5 mM TCEP, 0.2 mg/ml BSA, 50 μM sodium L-ascorbate, and 2 μM ammonium iron(II) sulfate. Reaction product was determined quantitatively by TR-FRET after the addition of detection reagent Phycolink Streptavidin-allophycocyanin (Prozyme) and Europium-anti-mono-or di-methylated histone H3 lysine 4 (H3K4me1-2) antibody (PerkinElmer) in the presence of 5 mM EDTA in LANCE detection buffer (PerkinElmer) at a final concentration of 25 nM and 1 nM, respectively.
The assay reaction was initiated by the following: 2 μl of the mixture of 900 nM H3K4me3-biotin labeled peptide and 6 μM alpha-ketoglutaric acid with 2 μl of 11-point serial diluted inhibitor in 3% DMSO was added to each well of plate, followed by the addition of 2 μl of 3 nM Jarid1A to initiate the reaction. The reaction mixture was incubated at room temperature for 30 minutes, and terminated by the addition of 6 μl of 5 mM EDTA in LANCE detection buffer containing 50 nM Phycolink Streptavidin-allophycocyanin and 2 nM Europium-anti-H3K4me1-2 antibody. Plates were read by EnVisionMultilabel Reader in TR-FRET mode (excitation at 320 nm, emission at 615 nm and 665 nm) after 1 hour incubation at room temperature. A ratio was calculated (665/615) for each well and fitted to determine inhibition constant (IC50).
On the technique in general: TR-FRET usually uses a lanthanide donor and a delayed reading to cut background.
Molecule `COCCn1cc(Oc2nc(O)c3ccncc3n2)cn1` [Example 64, 2-{[1-(2-methoxyethyl)-1H-pyrazol-4-yl]oxy}pyrido[3,4-d]pyrimidin-4-ol] returned an IC50 of at most 100 nM.

For the molecule `Cn1cnc(-c2nccc3c(O)nc(OCCC4CC4)nc23)c1` [Example 78, 2-(2-cyclopropylethoxy)-8-(1-methylimidazol-4-yl)pyrido[3,4-d]pyrimidin-4-ol], the IC50 was at most 100 nM.

`Oc1nc(Oc2ccccc2F)nc2cnccc12` [Example 46, 2-(2-fluorophenoxy)pyrido[3,4-d]pyrimidin-4-ol] registered a half-inhibitory concentration (IC50) of at most 100 nM.

Molecule `Oc1nc(OC2CCCC2)nc2cnccc12` [Example 6, 2-cyclopentyloxy-3H-pyrido[3,4-d]pyrimidin-4-one] displayed an IC50 of 100 to 1000 nM.

Molecule `COCCn1ncc2ccc(Oc3nc(O)c4ccncc4n3)cc21` [Example 61, 2-{[1-(2-methoxyethyl)-1H-indazol-6-yl]oxy}pyrido[3,4-d]pyrimidin-4-ol] gave an IC50 of at most 100 nM.

`Cn1cnc(-c2nccc3c(O)nc(Oc4cnn(C5CCOCC5)c4)nc23)c1` [Example 100, 8-(1-methylimidazol-4-yl)-2-[1-(oxan-4-yl)pyrazol-4-yl]oxypyrido[3,4-d]pyrimidin-4-ol] gave an IC50 of at most 100 nM.

Molecule `COCCCn1cc(Oc2nc(O)c3ccncc3n2)cn1` [Example 65, 2-{[1-(3-methoxypropyl)-1H-pyrazol-4-yl]oxy}pyrido[3,4-d]pyrimidin-4-ol] came in with an IC50 of at most 100 nM.

Take `Oc1nc(Oc2cnn(C3CCOCC3)c2)nc2cnccc12` [Example 67, 2-{[1-(tetrahydro-2H-pyran-4-yl)-1H-pyrazol-4-yl]oxy}pyrido[3,4-d]pyrimidin-4-ol]: the IC50 was at most 100 nM.

In turn, `COc1nc(O)c2ccnc(-c3cn(C)cn3)c2n1` [Example 68, 2-methoxy-8-(1-methyl-1H-imidazol-4-yl)pyrido[3,4-d]pyrimidin-4-ol] gave an IC50 of at most 100 nM.

`Cn1cnc(-c2nccc3c(O)nc(Oc4ccc5cnn(C)c5c4)nc23)c1` [Example 83, 8-(1-methylimidazol-4-yl)-2-(1-methylindazol-6-yl)oxypyrido[3,4-d]pyrimidin-4-ol] gave a concentration for half-maximal inhibition (IC50) of at most 100 nM.

`Cn1cnc(-c2nccc3c(O)nc(OCc4ccccc4Cl)nc23)c1` [Example 105, 2-[(2-chlorophenyl)methoxy]-8-(1-methyl-1H-imidazol-4-yl)pyrido[3,4-d]pyrimidin-4-ol] had an IC50 of 1000 to 10000 nM.

In the case of `CC(C)c1cccc(Oc2nc(O)c3ccncc3n2)c1` [Example 39, 2-(3-propan-2-ylphenoxy)pyrido[3,4-d]pyrimidin-4-ol], the IC50 is at most 100 nM.

`CN(C)c1ccc(Oc2nc(O)c3ccncc3n2)cc1` [Example 59, 2-[4-(dimethylamino)phenoxy]pyrido[3,4-d]pyrimidin-4-ol] registered an IC50 of at most 100 nM.

On to `CCn1ncc2ccc(Oc3nc(O)c4ccnc(-c5cn(C)cn5)c4n3)cc21` [Example 84, 2-(1-ethylindazol-6-yl)oxy-8-(1-methylimidazol-4-yl)pyrido[3,4-d]pyrimidin-4-ol], for which the IC50 is at most 100 nM.

In turn, `COc1c(F)cc(Oc2nc(O)c3ccncc3n2)cc1F` [Example 43, 2-(3,5-difluoro-4-methoxyphenoxy)pyrido[3,4-d]pyrimidin-4-ol] gave an IC50 of at most 100 nM.

`Cn1cnc(-c2nccc3c(O)nc(Oc4cnn(Cc5ccccc5)c4)nc23)c1` [Example 79, 2-(1-benzylpyrazol-4-yl)oxy-8-(1-methylimidazol-4-yl)pyrido[3,4-d]pyrimidin-4-ol] came in with an IC50 of at most 100 nM.

In turn, `Cn1cnc(-c2nccc3c(O)nc(Oc4ccc(F)c(F)c4)nc23)c1` [Example 81, 2-(3,4-difluorophenoxy)-8-(1-methylimidazol-4-yl)pyrido[3,4-d]pyrimidin-4-ol] yielded an IC50 of at most 100 nM.

`O=C(c1ccc(F)cc1)N1CCC(n2cc(Oc3nc(O)c4ccncc4n3)cn2)CC1` [Example 93, (4-fluorophenyl)-[4-[4-(4-hydroxypyrido[3,4-d]pyrimidin-2-yl)oxypyrazol-1-yl]piperidin-1-yl]methanone] gave an IC50 of at most 100 nM.

`COCCOc1ccc(Oc2nc(O)c3ccnc(-c4cn(C)cn4)c3n2)cc1` [Example 82, 2-[4-(2-methoxyethoxy)phenoxy]-8-(1-methylimidazol-4-yl)pyrido[3,4-d]pyrimidin-4-ol] came in with an IC50 of at most 100 nM.

With `Cn1cnc(-c2nccc3c(O)nc(OCC4CCOCC4)nc23)c1` [Example 102, 8-(1-methyl-1H-imidazol-4-yl)-2-(oxan-4-ylmethoxy)pyrido[3,4-d]pyrimidin-4-ol], the IC50 was 100 to 1000 nM.

Consider `CC(=O)N1CCC(n2cc(Oc3nc(O)c4ccncc4n3)cn2)CC1` [Example 90, 1-[4-[4-(4-hydroxypyrido[3,4-d]pyrimidin-2-yl)oxypyrazol-1-yl]piperidin-1-yl]ethanone], for which the IC50 is at most 100 nM.

As for `Oc1nc(Oc2ccnc(N3CCOCC3)c2)nc2cnccc12` [Example 97, 2-(2-morpholin-4-ylpyridin-4-yl)oxypyrido[3,4-d]pyrimidin-4-ol], the IC50 is at most 100 nM.

In turn, `Cn1cnc(-c2nccc3c(O)nc(OCC(C)(C)O)nc23)c1` [Example 98, 2-(2-hydroxy-2-methylpropoxy)-8-(1-methylimidazol-4-yl)pyrido[3,4-d]pyrimidin-4-ol] showed an IC50 of 100 to 1000 nM.

As for `CC(C)n1cc(Oc2nc3cnccc3c(=O)[nH]2)cn1` [Example 63, 2-{[1-(propan-2-yl)-1H-pyrazol-4-yl]oxy}pyrido[3,4-d]pyrimidin-4-ol], the IC50 is at most 100 nM.

Consider `CC(C)CCn1cc(Oc2nc(O)c3ccnc(-c4cn(C)cn4)c3n2)cn1` [Example 80, 2-[1-(3-methylbutyl)pyrazol-4-yl]oxy-8-(1-methylimidazol-4-yl)pyrido[3,4-d]pyrimidin-4-ol], for which the concentration for half-maximal inhibition (IC50) is at most 100 nM.

With `COc1nc(O)c2ccncc2n1` [Example 8, 2-methoxypyrido[3,4-d]pyrimidin-4-ol], the IC50 is at most 100 nM.

For `CCCc1cccc(Oc2nc(O)c3ccncc3n2)c1` [Example 58, 2-(3-propylphenoxy)pyrido[3,4-d]pyrimidin-4-ol], the IC50 is at most 100 nM.

In turn, `Cn1cnc(-c2nccc3c(O)nc(OCc4ccccc4)nc23)c1` [Example 101, 8-(1-methylimidazol-4-yl)-2-phenylmethoxypyrido[3,4-d]pyrimidin-4-ol] showed an IC50 of at most 100 nM.

For `O=C(c1cc(F)cc(Oc2nc(O)c3ccncc3n2)c1)N1CCOCC1` [Example 60], the 50% inhibitory concentration (IC50) was at most 100 nM.

Molecule `CC(c1ccccc1)n1cc(Oc2nc(O)c3ccncc3n2)cn1` (centres unmarked) [Example 99] showed an IC50 of at most 100 nM.

Take `O=C(C1CC1)N1CCC(n2cc(Oc3nc(O)c4ccncc4n3)cn2)CC1` [Example 92, cyclopropyl-[4-[4-(4-hydroxypyrido[3,4-d]pyrimidin-2-yl)oxypyrazol-1-yl]piperidin-1-yl]methanone]: the IC50 was at most 100 nM.

Molecule `Cn1cnc(-c2nccc3c(O)nc(OCC4CCOC4)nc23)c1` (centres unmarked) [Example 103, 8-(1-methyl-1H-imidazol-4-yl)-2-(oxolan-3-ylmethoxy)pyrido[3,4-d]pyrimidin-4-ol] showed an IC50 of 100 to 1000 nM.

Broadly, the IC50 is the concentration that inhibits the measured activity by half. Read a low IC50 as inhibition by little substance.
